Results reported in publication PMC2931804 (Clinical cancer research : an official journal of the …, 2010).
Read-outs that look alike come from different tables or passages of the source.

[1] = DL1 500 mg twice daily × 3 + sLV5FU2, 1st cycle, n = 3
[2] = DL1 500 mg twice daily × 3 + sLV5FU2, Any cycle, n = 3
[3] = DL1 600 mg once daily × 3 + sLV5FU2, 1st cycle, n = 3
[4] = DL1 600 mg once daily × 3 + sLV5FU2, Any cycle, n = 3
[5] = DL2 600 mg twice daily × 3 + sLV5FU2, 1st cycle, n = 6
[6] = DL2 600 mg twice daily × 3 + sLV5FU2, Any cycle, n = 6
[7] = DL2 800 mg once daily × 3 + sLV5FU2, 1st cycle, n = 3
[8] = DL2 800 mg once daily × 3 + sLV5FU2, Any cycle, n = 3
[9] = DL3 800 mg twice daily × 3 + sLV5FU2, 1st cycle, n = 3
[10] = DL3 800 mg twice daily × 3 + sLV5FU2, Any cycle, n = 3

O=C(CCCCCCC(=O)Nc1ccccc1)NO [vorinostat, suberoylanilide hydroxamic acid]
Dose-limiting toxicities (800 mg vorinostat twice-daily dose level + sLV5FU2): Grade 3 fatigue and mucositis | Dose-limiting toxicities (2,000 mg vorinostat once-daily dose level + sLV5FU2): Grade 3 fatigue, and hand and foot syndrome | ATE, treatment-related, patients (G2/G3/G4) [1]: 0/0/0 | Anemia, treatment-related, patients (G2/G3/G4) [1]: 0/0/0 | Anorexia, treatment-related, patients (G2/G3/G4) [1]: 0/0/0 | Chelitis, treatment-related, patients (G2/G3/G4) [1]: 0/0/0 | Dehydration, treatment-related, patients (G2/G3/G4) [1]: 0/0/0 | Diarrhea, treatment-related, patients (G2/G3/G4) [1]: 1/0/0 | Esophagitis, treatment-related, patients (G2/G3/G4) [1]: 0/0/0 | Fatigue, treatment-related, patients (G2/G3/G4) [1]: 2/0/0 | Fever, treatment-related, patients (G2/G3/G4) [1]: 0/0/0 | Headache, treatment-related, patients (G2/G3/G4) [1]: 0/0/0 | Mucositis, treatment-related, patients (G2/G3/G4) [1]: 0/0/0 | Nausea, treatment-related, patients (G2/G3/G4) [1]: 1/0/0 | Neutropenia, treatment-related, patients (G2/G3/G4) [1]: 0/0/0 | Thrombocytopenia, treatment-related, patients (G2/G3/G4) [1]: 0/0/0 | VTE, treatment-related, patients (G2/G3/G4) [1]: 0/0/0 | Vomiting, treatment-related, patients (G2/G3/G4) [1]: 1/0/0 | ATE, treatment-related, patients (G2/G3/G4) [2]: 0/0/0 | Anemia, treatment-related, patients (G2/G3/G4) [2]: 0/0/0 | Anorexia, treatment-related, patients (G2/G3/G4) [2]: 2/0/0 | Chelitis, treatment-related, patients (G2/G3/G4) [2]: 0/0/0 | Dehydration, treatment-related, patients (G2/G3/G4) [2]: 0/0/0 | Diarrhea, treatment-related, patients (G2/G3/G4) [2]: 1/0/0 | Esophagitis, treatment-related, patients (G2/G3/G4) [2]: 1/0/0 | Fatigue, treatment-related, patients (G2/G3/G4) [2]: 3/0/0 | Fever, treatment-related, patients (G2/G3/G4) [2]: 1/0/0 | Headache, treatment-related, patients (G2/G3/G4) [2]: 0/0/0 | Mucositis, treatment-related, patients (G2/G3/G4) [2]: 1/0/0 | Nausea, treatment-related, patients (G2/G3/G4) [2]: 2/0/0 | Neutropenia, treatment-related, patients (G2/G3/G4) [2]: 0/0/0 | Thrombocytopenia, treatment-related, patients (G2/G3/G4) [2]: 0/0/0 | VTE, treatment-related, patients (G2/G3/G4) [2]: 0/0/0 | Vomiting, treatment-related, patients (G2/G3/G4) [2]: 1/0/0 | Anemia, treatment-related, patients (G2/G3/G4) [3]: 1/0/0 | Anorexia, treatment-related, patients (G2/G3/G4) [3]: 1/0/0 | DVT/PE, treatment-related, patients (G2/G3/G4) [3]: 0/0/0 | Dehydration, treatment-related, patients (G2/G3/G4) [3]: 0/0/0 | Diarrhea, treatment-related, patients (G2/G3/G4) [3]: 0/0/0 | Fatigue, treatment-related, patients (G2/G3/G4) [3]: 1/0/0 | GI bleed, treatment-related, patients (G2/G3/G4) [3]: 0/0/0 | Hand and Foot, treatment-related, patients (G2/G3/G4) [3]: 0/0/0 | Infection, treatment-related, patients (G2/G3/G4) [3]: 0/0/0 | Mucositis, treatment-related, patients (G2/G3/G4) [3]: 0/0/0 | Nausea, treatment-related, patients (G2/G3/G4) [3]: 1/0/0 | Neutropenia, treatment-related, patients (G2/G3/G4) [3]: 0/0/0 | Thrombocytopenia, treatment-related, patients (G2/G3/G4) [3]: 1/0/0 | Vomiting, treatment-related, patients (G2/G3/G4) [3]: 0/0/0 | Weight Loss, treatment-related, patients (G2/G3/G4) [3]: 0/0/0 | Anemia, treatment-related, patients (G2/G3/G4) [4]: 1/0/0 | Anorexia, treatment-related, patients (G2/G3/G4) [4]: 1/0/0 | Creatinine, treatment-related, patients (G2/G3/G4) [4]: 1/0/0 | DVT/PE, treatment-related, patients (G2/G3/G4) [4]: 0/0/0 | Dehydration, treatment-related, patients (G2/G3/G4) [4]: 1/0/0 | Diarrhea, treatment-related, patients (G2/G3/G4) [4]: 0/1/0 | Fatigue, treatment-related, patients (G2/G3/G4) [4]: 2/0/0 | GI bleed, treatment-related, patients (G2/G3/G4) [4]: 0/0/0 | Hand and Foot, treatment-related, patients (G2/G3/G4) [4]: 0/0/0 | Infection, treatment-related, patients (G2/G3/G4) [4]: 0/0/0 | Mucositis, treatment-related, patients (G2/G3/G4) [4]: 2/0/0 | Nausea, treatment-related, patients (G2/G3/G4) [4]: 1/0/0 | Neutropenia, treatment-related, patients (G2/G3/G4) [4]: 0/0/0 | Thrombocytopenia, treatment-related, patients (G2/G3/G4) [4]: 1/0/0 | Vomiting, treatment-related, patients (G2/G3/G4) [4]: 1/0/0 | Weight Loss, treatment-related, patients (G2/G3/G4) [4]: 0/0/0 | DLT (DL1 (500 mg twice daily × 3) and DL2 (600 mg twice daily), three patients each): without any DLT | ATE, treatment-related, patients (G2/G3/G4) [5]: 0/0/0 | Anemia, treatment-related, patients (G2/G3/G4) [5]: 1/0/0 | Anorexia, treatment-related, patients (G2/G3/G4) [5]: 2/0/0 | Chelitis, treatment-related, patients (G2/G3/G4) [5]: 0/0/0 | Dehydration, treatment-related, patients (G2/G3/G4) [5]: 0/0/0 | Diarrhea, treatment-related, patients (G2/G3/G4) [5]: 1/0/0 | Esophagitis, treatment-related, patients (G2/G3/G4) [5]: 0/0/0 | Fatigue, treatment-related, patients (G2/G3/G4) [5]: 3/0/0 | Fever, treatment-related, patients (G2/G3/G4) [5]: 0/0/0 | Headache, treatment-related, patients (G2/G3/G4) [5]: 0/0/0 | Mucositis, treatment-related, patients (G2/G3/G4) [5]: 0/0/0 | Nausea, treatment-related, patients (G2/G3/G4) [5]: 3/0/0 | Neutropenia, treatment-related, patients (G2/G3/G4) [5]: 0/0/0 | Thrombocytopenia, treatment-related, patients (G2/G3/G4) [5]: 0/1/0 | VTE, treatment-related, patients (G2/G3/G4) [5]: 0/0/0 | Vomiting, treatment-related, patients (G2/G3/G4) [5]: 1/0/0 | ATE, treatment-related, patients (G2/G3/G4) [6]: 0/0/0 | Anemia, treatment-related, patients (G2/G3/G4) [6]: 1/1/0 | Anorexia, treatment-related, patients (G2/G3/G4) [6]: 2/0/0 | Chelitis, treatment-related, patients (G2/G3/G4) [6]: 0/0/0 | Dehydration, treatment-related, patients (G2/G3/G4) [6]: 2/0/0 | Diarrhea, treatment-related, patients (G2/G3/G4) [6]: 1/0/0 | Esophagitis, treatment-related, patients (G2/G3/G4) [6]: 0/0/0 | Fatigue, treatment-related, patients (G2/G3/G4) [6]: 3/1/0 | Fever, treatment-related, patients (G2/G3/G4) [6]: 0/0/1 | Headache, treatment-related, patients (G2/G3/G4) [6]: 0/1/0 | Mucositis, treatment-related, patients (G2/G3/G4) [6]: 0/0/0 | Nausea, treatment-related, patients (G2/G3/G4) [6]: 3/0/0 | Neutropenia, treatment-related, patients (G2/G3/G4) [6]: 0/0/0 | Thrombocytopenia, treatment-related, patients (G2/G3/G4) [6]: 0/0/1 | VTE, treatment-related, patients (G2/G3/G4) [6]: 0/0/0 | Vomiting, treatment-related, patients (G2/G3/G4) [6]: 1/0/0 | Patients with DLT (DL2 600 mg twice daily × 3 + sLV5FU2, six patients): None and without any DLT | Anemia, treatment-related, patients (G2/G3/G4) [7]: 1/0/0 | Anorexia, treatment-related, patients (G2/G3/G4) [7]: 1/0/0 | Creatinine, treatment-related, patients (G2/G3/G4) [7]: 1/0/0 | DVT/PE, treatment-related, patients (G2/G3/G4) [7]: 0/0/0 | Dehydration, treatment-related, patients (G2/G3/G4) [7]: 0/0/0 | Diarrhea, treatment-related, patients (G2/G3/G4) [7]: 0/0/0 | Fatigue, treatment-related, patients (G2/G3/G4) [7]: 1/0/0 | GI bleed, treatment-related, patients (G2/G3/G4) [7]: 0/0/0 | Hand and Foot, treatment-related, patients (G2/G3/G4) [7]: 0/0/0 | Infection, treatment-related, patients (G2/G3/G4) [7]: 0/0/0 | Mucositis, treatment-related, patients (G2/G3/G4) [7]: 0/0/0 | Nausea, treatment-related, patients (G2/G3/G4) [7]: 1/0/0 | Neutropenia, treatment-related, patients (G2/G3/G4) [7]: 0/0/0 | Thrombocytopenia, treatment-related, patients (G2/G3/G4) [7]: 1/0/0 | Vomiting, treatment-related, patients (G2/G3/G4) [7]: 0/0/0 | Weight Loss, treatment-related, patients (G2/G3/G4) [7]: 0/0/0 | Anemia, treatment-related, patients (G2/G3/G4) [8]: 1/0/0 | Anorexia, treatment-related, patients (G2/G3/G4) [8]: 2/0/0 | DVT/PE, treatment-related, patients (G2/G3/G4) [8]: 0/0/0 | Dehydration, treatment-related, patients (G2/G3/G4) [8]: 0/0/0 | Diarrhea, treatment-related, patients (G2/G3/G4) [8]: 1/0/0 | Fatigue, treatment-related, patients (G2/G3/G4) [8]: 2/0/0 | GI bleed, treatment-related, patients (G2/G3/G4) [8]: 0/0/0 | Hand and Foot, treatment-related, patients (G2/G3/G4) [8]: 0/0/0 | Infection, treatment-related, patients (G2/G3/G4) [8]: 0/0/0 | Mucositis, treatment-related, patients (G2/G3/G4) [8]: 0/0/0 | Nausea, treatment-related, patients (G2/G3/G4) [8]: 2/0/0 | Neutropenia, treatment-related, patients (G2/G3/G4) [8]: 0/0/0 | Thrombocytopenia, treatment-related, patients (G2/G3/G4) [8]: 1/0/0 | Vomiting, treatment-related, patients (G2/G3/G4) [8]: 0/0/0 | Weight Loss, treatment-related, patients (G2/G3/G4) [8]: 0/0/0 | ATE, treatment-related, patients (G2/G3/G4) [9]: 0/0/0 | Anemia, treatment-related, patients (G2/G3/G4) [9]: 0/0/0 | Anorexia, treatment-related, patients (G2/G3/G4) [9]: 1/0/0 | Chelitis, treatment-related, patients (G2/G3/G4) [9]: 1/0/0 | Dehydration, treatment-related, patients (G2/G3/G4) [9]: 2/0/0 | Diarrhea, treatment-related, patients (G2/G3/G4) [9]: 1/0/0 | Esophagitis, treatment-related, patients (G2/G3/G4) [9]: 1/0/0 | Fever, treatment-related, patients (G2/G3/G4) [9]: 0/0/0 | Headache, treatment-related, patients (G2/G3/G4) [9]: 0/0/0 | Nausea, treatment-related, patients (G2/G3/G4) [9]: 0/0/0 | Neutropenia, treatment-related, patients (G2/G3/G4) [9]: 0/0/0 | Thrombocytopenia, treatment-related, patients (G2/G3/G4) [9]: 3/0/0 | VTE, treatment-related, patients (G2/G3/G4) [9]: 0/0/0 | Vomiting, treatment-related, patients (G2/G3/G4) [9]: 0/0/0 | ATE, treatment-related, patients (G2/G3/G4) [10]: 0/0/1 | Anemia, treatment-related, patients (G2/G3/G4) [10]: 0/2/0 | Anorexia, treatment-related, patients (G2/G3/G4) [10]: 2/0/0 | Chelitis, treatment-related, patients (G2/G3/G4) [10]: 2/0/0 | Dehydration, treatment-related, patients (G2/G3/G4) [10]: 2/0/0 | Diarrhea, treatment-related, patients (G2/G3/G4) [10]: 0/1/0 | Esophagitis, treatment-related, patients (G2/G3/G4) [10]: 1/0/0 | Fatigue, treatment-related, patients (G2/G3/G4) [10]: 1/2/0 | Fever, treatment-related, patients (G2/G3/G4) [10]: 0/0/0 | Headache, treatment-related, patients (G2/G3/G4) [10]: 0/0/0 | Mucositis, treatment-related, patients (G2/G3/G4) [10]: 2/1/1
